These results are taken from US20190292516A1, “METHOD FOR IMPROVING PRODUCT TITER IN A CELL AND A CELL MEDIA FOR IMPROVING THE SAME” (VALITACELL LIMITED, priority 2018, published 2019).

Common to all, as to format: cell-based, Chinese Hamster
The subject of data set [1] is CHO-S stable clone producing an anti-Her2 like IgG1 antibody. Description: Deep well shaking plate culture with chemical enhancer added at Day 0 or Day 3; cell growth, viability and titer. Here is the method: The Applicant uses a platform consisting of screening Chinese Hamster Ovary (CHO) cell clone leads grown in a deep well plate coated with media containing 3TAA. The cells are measured for increased growth and productivity (titer) to determine whether 3TAA, and other enhancer chemicals, have offered the optimum cell culture environment, and can improve the growth and/or productivity of promising lead clones, which otherwise, grown in sub-optimal conditions, would not have been selected. To establish optimum concentration for the best titer boost, high throughput experimentation was performed in 96 deep well plates (Greiner Bio-One, Gloucestershire, United Kingdom). The cell line used was a CHO-S stable clone producing an anti-Her2 like IgG1 antibody. Cells were cultured in CD CHO medium (Thermo Fisher Scientific, Paisley, UK), supplemented with 8 mM L-glutamine, 1% HT supplement and 12.5 ug/ml puromycin selection marker (Thermo Fisher Scientific, Paisley, UK). Cells grown in these plates were incubated at 320 rpm (25 mm throw), 37° C., 5% CO2 and 85% humidity. The plates were covered with vented lids and secured using clamps (“System Duetz”; Enzyscreen B.V., Heemstede, Netherlands). Cells were seeded at 0.2×10^6 cells ml^−1 with a seeding volume of 450 μL (unless specified otherwise). Chemical enhancer molecules, including 3TAA, were trialled at 4 to 10 different concentrations at Day 0 in culture. Subsequently, a subset of concentrations was carried forward for delayed addition at Day 3 of culture. Day 3 was chosen based on the cell growth profile in deep well plates. Cells were cultured for 5 days before culture attributes (cell growth and titer) were recorded, unless otherwise stated. Cell growth was measured using the PrestoBlue® Assay (ThermoFisher Scientific), viability was verified using the Vi-cell™ cell viability analyser (Beckmann Coulter, High Wycombe, UK), and titer was measured using the Valita™TITER assay (Valitacell, Dublin, Ireland).

For data set [2] the test system is unchanged. As to the kind of experiment: Apoptosis analysis of 3TAA supplemented shake flask cultures. To be noted: 3TAA 2.5 mM added Day 0, shake flask, analysed Day 5. On the procedure:
(§1) Shake flask cultures were performed in vented Erlenmeyer flasks with a 30 ml working culture volume. Cells were seeded at 0.2×10^6 cells ml^−1. 3TAA was added at 2.5 mM (optimum concentrations from deep well plate culture) on Day 0. Growth and titer were monitored daily. Total RNA and histone extracts were collected from Day 5 of culture. Cell cycle and apoptosis analysis were performed on Day 4 and Day 5 post seeding respectively.

For data set [3] the test system is unchanged. As to the kind of experiment: Batch shake flask culture supplemented with 3TAA. The conditions noted are these: 2.5 mM, Day 0 addition, 10 days. On the procedure: as §1
A short description of data set [4]: Batch shake flask culture supplemented with 3TAA. The conditions noted are these: Chinese hamster, CHO-S stable clone producing an anti-Her2 like IgG1 antibody, Day 0 addition. On the procedure: as §1
For data set [5], the system named is CHO-S stable clone producing an anti-Her2 like IgG1 antibody. Description: Cell cycle analysis by propidium iodide staining and flow cytometry. To be noted: 3TAA 2.5 mM added Day 0, shake flask, analysed Day 4. Here is the method:
as §1
1×10^6 cells were extracted from culture and fixed in 4% paraformaldehyde (Alfa Aesar; Thermo Fisher Scientific). The cells were then stained with propidium iodide using the FxCycle™ PI/RNase Staining Solution (Thermo Fisher Scientific). Cell cycle analysis was performed on the Attune Acoustic Focusing Cytometer (Thermo Fisher Scientific).
(In general: A flow cytometer gives signals particle by particle.)

[6] abbreviates: 3TAA 2.5 mM, Day 0 addition, deep well plate.

Consider `O=C(O)Cc1ccsc1` [3TAA, 3-Thiopheneacetic acid], for which the “reduction in IVCD” value in data set [1] (2.5 mM, Day 0 addition) amounted to 25%; in data set [1] (2.5 mM, Day 3 addition) it was 20%; in data set [1] (4 mM, Day 0 addition), 50%; in data set [1] (4 mM, Day 3 addition) it was 25%. For the same compound, the titer boost in data set [1] (2.5 mM, Day 0 addition) came out at 160%; in data set [1] (2.5 mM, Day 3 addition), 177%; in data set [1] (4 mM, Day 0 addition), 17%; in data set [1] (4 mM, Day 3 addition), 125%; in data set [1] (setting [6]), 1.59 fold; in data set [1] (delayed addition at exponential phase (Day 3), concentration not given), 2.6 fold. Besides, in data set [1] (setting [6]), the cell growth reduction came out at 25%. The “initiation of apoptotic pathways” value in data set [2] is reported as “Apoptotic pathways were not initiated”. In addition, the “culture viability in comparison to vehicle and no addition controls” value in data set [3] is reported as “remained unaffected”. Also, the “increase in total volumetric titer” value in data set [3] was 1.9 fold. For the same compound, the decrease in peak viable cell density at 10 days, 2.5 mM in data set [4] was 30%. The “increase in accumulation in the G1 phase” value in data set [5] is 11%.
